Article PMC6199744, “Development of Chemical Proteomics for the Folateome and Analysis of the Kinetoplastid Folateome” (ACS Infectious Diseases, 2018)
Read-outs that look alike come from different tables or passages of the source.

Assays:
Assay type in all cases: binding
[1] = biological target: T1, HeLa cell extract proteins (Homo sapiens, UniProt P22314)
T1 construct: endogenous in cells; host or cells: HeLa cell extract
T1 sequence (P22314 1-1058): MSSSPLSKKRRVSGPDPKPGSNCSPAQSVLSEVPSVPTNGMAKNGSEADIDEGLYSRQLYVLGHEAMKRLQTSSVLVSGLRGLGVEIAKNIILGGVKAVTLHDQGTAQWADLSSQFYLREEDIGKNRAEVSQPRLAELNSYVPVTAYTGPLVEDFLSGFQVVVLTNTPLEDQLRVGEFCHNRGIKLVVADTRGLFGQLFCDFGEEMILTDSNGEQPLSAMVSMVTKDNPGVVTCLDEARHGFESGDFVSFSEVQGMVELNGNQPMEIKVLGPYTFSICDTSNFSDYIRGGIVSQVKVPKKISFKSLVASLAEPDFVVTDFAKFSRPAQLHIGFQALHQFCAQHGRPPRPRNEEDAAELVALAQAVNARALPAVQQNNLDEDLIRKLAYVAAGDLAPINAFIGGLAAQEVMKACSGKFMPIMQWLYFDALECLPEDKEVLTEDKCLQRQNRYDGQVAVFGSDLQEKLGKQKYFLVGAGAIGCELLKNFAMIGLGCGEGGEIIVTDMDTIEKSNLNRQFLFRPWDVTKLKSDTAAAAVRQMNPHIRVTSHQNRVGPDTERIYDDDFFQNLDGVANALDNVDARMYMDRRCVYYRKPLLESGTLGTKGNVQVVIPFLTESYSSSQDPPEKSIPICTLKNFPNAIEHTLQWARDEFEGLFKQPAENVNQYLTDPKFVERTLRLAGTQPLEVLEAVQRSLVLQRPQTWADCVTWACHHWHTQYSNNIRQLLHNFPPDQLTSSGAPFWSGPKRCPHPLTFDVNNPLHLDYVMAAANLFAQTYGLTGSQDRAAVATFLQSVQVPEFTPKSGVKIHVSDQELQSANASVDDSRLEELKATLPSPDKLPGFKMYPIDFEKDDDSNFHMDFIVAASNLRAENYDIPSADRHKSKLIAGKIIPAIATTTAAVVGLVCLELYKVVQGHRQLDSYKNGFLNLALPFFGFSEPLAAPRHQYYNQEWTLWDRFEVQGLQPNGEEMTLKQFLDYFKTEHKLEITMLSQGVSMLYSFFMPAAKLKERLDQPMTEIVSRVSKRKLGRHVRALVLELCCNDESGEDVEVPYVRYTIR

[2] = biological target: T2, HeLa cell extract proteins (Homo sapiens, UniProt P16152)
T2 construct: endogenous in cells; host or cells: HeLa cell extract
T2 sequence (P16152 1-277): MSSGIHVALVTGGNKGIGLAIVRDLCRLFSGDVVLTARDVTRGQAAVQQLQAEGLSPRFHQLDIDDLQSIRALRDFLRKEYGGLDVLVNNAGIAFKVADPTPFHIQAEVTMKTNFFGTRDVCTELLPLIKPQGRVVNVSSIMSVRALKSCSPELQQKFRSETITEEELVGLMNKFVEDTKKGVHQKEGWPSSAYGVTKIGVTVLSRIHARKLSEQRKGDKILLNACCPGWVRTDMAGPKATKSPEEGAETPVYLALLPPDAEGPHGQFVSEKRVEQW

[3] = biological target: T3, HeLa cell extract proteins (Homo sapiens, UniProt P04083)
T3 construct: endogenous in cells; host or cells: HeLa cell extract
T3 sequence (P04083 1-346): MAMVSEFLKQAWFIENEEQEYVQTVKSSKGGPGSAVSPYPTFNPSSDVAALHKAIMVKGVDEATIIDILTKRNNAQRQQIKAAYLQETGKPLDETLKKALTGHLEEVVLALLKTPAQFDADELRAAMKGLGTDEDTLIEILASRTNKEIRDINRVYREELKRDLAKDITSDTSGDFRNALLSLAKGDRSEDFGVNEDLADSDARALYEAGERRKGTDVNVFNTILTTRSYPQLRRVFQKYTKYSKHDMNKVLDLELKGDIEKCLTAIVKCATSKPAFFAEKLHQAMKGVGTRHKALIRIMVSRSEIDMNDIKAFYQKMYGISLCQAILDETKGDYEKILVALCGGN

[4] = biological target: T4, HeLa cell extract proteins (Homo sapiens, UniProt Q96BY9)
T4 construct: endogenous in cells; host or cells: HeLa cell extract
T4 sequence (Q96BY9 31-339): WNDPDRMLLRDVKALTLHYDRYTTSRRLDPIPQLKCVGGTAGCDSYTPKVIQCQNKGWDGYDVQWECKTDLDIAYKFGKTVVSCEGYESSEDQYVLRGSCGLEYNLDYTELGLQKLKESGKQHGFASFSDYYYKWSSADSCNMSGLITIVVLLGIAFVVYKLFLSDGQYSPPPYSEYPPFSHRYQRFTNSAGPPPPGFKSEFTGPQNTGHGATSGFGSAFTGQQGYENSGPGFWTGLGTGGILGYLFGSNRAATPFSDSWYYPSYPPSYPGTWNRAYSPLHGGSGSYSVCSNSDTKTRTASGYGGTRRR

[5] = biological target: T5, HeLa cell extract proteins (Homo sapiens, UniProt P15104)
T5 construct: endogenous in cells; host or cells: HeLa cell extract

[6] = biological target: T6, HeLa cell extract proteins (Homo sapiens, UniProt O15027)
T6 construct: endogenous in cells; host or cells: HeLa cell extract

[7] = biological target: T7, HeLa cell extract proteins (Homo sapiens, UniProt P53611)
T7 construct: endogenous in cells; host or cells: HeLa cell extract
T7 sequence (P53611 1-331): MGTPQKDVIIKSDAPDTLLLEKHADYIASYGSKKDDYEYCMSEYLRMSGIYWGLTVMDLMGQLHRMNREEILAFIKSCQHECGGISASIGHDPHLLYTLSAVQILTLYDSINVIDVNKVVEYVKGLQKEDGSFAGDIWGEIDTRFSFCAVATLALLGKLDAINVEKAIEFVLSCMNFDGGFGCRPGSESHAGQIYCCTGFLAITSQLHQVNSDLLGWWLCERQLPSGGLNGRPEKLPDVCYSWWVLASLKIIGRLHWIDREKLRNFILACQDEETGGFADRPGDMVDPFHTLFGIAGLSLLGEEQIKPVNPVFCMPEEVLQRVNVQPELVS

[8] = biological target: T8, HeLa cell extract proteins (Homo sapiens, UniProt P29692)
T8 construct: endogenous in cells; host or cells: HeLa cell extract
T8 sequence (P29692 1-281): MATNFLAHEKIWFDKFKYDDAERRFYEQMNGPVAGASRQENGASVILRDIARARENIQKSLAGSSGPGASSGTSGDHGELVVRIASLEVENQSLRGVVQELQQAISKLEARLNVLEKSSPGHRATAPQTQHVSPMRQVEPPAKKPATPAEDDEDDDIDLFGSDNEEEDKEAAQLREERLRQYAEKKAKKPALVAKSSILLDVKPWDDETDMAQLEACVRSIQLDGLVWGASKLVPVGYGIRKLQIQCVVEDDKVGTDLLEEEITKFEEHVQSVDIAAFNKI

[9] = HeLa, protein SEC16A (HY[…] LOC9919)
[10] = HeLa, protein TMEM66 (TRANSMEMBRANE PROTEIN 66 PRECURSOR)

T5 sequence (P15104 whole entry): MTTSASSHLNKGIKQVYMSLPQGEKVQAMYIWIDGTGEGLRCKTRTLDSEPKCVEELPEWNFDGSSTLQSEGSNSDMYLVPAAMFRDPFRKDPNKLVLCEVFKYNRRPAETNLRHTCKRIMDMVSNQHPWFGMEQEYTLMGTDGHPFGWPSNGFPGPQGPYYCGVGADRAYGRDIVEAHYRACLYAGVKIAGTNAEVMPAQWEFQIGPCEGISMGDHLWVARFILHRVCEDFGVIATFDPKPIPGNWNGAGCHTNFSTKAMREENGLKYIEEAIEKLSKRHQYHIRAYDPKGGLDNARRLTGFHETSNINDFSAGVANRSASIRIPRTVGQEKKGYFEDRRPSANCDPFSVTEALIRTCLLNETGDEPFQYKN
T6 sequence (O15027 whole entry): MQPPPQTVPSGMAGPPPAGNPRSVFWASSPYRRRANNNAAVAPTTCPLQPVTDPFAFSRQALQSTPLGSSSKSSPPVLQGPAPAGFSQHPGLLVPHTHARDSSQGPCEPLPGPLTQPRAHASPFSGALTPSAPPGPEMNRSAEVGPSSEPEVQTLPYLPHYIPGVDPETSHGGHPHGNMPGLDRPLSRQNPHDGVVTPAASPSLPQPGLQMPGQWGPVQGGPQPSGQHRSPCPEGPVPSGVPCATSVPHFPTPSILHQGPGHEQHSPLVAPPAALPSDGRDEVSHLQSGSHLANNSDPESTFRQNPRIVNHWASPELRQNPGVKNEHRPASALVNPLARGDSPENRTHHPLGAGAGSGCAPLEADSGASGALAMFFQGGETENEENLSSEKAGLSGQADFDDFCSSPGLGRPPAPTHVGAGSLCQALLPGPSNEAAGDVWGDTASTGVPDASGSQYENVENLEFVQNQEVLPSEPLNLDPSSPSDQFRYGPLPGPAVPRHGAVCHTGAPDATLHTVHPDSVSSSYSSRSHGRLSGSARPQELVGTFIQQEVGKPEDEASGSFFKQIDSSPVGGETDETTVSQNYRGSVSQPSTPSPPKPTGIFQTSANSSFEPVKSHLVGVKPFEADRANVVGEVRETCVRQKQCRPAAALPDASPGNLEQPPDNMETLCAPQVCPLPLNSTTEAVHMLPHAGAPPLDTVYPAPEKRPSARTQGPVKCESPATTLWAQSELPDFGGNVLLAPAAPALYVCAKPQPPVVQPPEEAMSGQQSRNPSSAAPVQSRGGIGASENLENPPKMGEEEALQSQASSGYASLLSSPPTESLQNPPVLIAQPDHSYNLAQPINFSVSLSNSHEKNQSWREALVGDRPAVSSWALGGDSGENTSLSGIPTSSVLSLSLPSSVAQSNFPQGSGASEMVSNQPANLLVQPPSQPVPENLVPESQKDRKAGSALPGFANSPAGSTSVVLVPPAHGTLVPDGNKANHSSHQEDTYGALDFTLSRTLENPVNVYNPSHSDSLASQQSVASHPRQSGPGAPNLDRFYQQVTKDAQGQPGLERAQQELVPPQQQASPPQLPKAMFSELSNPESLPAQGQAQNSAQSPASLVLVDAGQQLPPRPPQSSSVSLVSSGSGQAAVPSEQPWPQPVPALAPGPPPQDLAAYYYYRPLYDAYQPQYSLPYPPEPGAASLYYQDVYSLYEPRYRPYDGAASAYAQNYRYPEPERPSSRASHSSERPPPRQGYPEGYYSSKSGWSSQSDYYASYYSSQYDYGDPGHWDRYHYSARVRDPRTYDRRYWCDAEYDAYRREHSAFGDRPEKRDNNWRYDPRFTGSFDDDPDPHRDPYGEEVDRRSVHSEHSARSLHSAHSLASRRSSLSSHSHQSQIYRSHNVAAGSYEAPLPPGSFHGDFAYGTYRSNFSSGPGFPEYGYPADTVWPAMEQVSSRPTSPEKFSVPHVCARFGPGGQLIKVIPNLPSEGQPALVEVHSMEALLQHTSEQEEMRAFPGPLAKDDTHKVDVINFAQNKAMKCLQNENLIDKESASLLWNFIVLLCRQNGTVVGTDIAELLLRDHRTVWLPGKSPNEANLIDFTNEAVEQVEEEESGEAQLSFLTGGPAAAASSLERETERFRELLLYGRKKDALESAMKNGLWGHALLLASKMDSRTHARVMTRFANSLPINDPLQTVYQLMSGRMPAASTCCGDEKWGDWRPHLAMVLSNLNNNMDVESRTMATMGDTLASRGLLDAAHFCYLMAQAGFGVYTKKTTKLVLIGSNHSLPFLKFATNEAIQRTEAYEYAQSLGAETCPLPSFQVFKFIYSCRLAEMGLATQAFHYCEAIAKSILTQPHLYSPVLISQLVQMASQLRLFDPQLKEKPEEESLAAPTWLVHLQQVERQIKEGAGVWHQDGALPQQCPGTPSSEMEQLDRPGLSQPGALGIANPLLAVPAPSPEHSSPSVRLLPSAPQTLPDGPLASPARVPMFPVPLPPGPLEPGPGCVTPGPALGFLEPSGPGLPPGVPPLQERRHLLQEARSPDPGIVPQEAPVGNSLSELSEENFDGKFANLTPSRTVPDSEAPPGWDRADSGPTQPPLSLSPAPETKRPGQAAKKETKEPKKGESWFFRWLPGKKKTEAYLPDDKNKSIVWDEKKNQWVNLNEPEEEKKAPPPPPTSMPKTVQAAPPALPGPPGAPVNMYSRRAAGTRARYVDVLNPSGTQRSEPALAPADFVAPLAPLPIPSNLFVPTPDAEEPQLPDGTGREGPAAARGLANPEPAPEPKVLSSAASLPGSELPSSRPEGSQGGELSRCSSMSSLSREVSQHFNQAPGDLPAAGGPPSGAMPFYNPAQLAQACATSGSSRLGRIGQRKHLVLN

Row | Compound | fold changes relative to vehicle control ([1]; HeLa, protein UBA1) | fold changes relative to vehicle control ([2]; protein CBR1, HeLa) | fold changes relative to vehicle control ([3]; protein ANXA1, HeLa) | fold changes relative to vehicle control ([5]; HeLa, protein GLUL) | fold changes relative to vehicle control ([7]; HeLa, captured protein RABGGTB) | fold changes relative to vehicle control ([8]; protein EEF1D, HeLa) | fold changes relative to vehicle control ([1]; protein UBA1, HeLa) | fold changes relative to vehicle control ([2]; HeLa, protein CBR1) | fold changes relative to vehicle control ([4]; protein TMEM66, HeLa) | fold changes relative to vehicle control ([5]; captured protein GLUL, HeLa) | fold changes relative to vehicle control ([6]; HeLa, protein SEC16A) | fold changes relative to vehicle control ([7]; protein RABGGTB, HeLa) | further results
1 | Nc1nc2c(c(=O)[nH]1)N(C=O)C(CNc1ccc(C(=O)N[C@@H](CCC(=O)O)C(=O)O)cc1)CN2 (some centres unmarked) [LEU, leucovorin] | 1.05 | 0.81 | 0.81 | 0.62 | 1.01 | 0.99 | – | – | – | – | – | – | fold changes relative to vehicle control ([4]; HeLa, protein TMEM66 (TRA[…] 66 PRECURSOR)): 1.06; fold changes relative to vehicle control [6, 9]: 1.25
2 | Nc1nc2[nH]cc(CCc3ccc(C(=O)N[C@@H](CCC(=O)O)C(=O)O)cc3)c2c(=O)[nH]1 [PTX, pemetrexed] | – | – | – | – | – | – | – | – | – | – | – | – | fold changes relative to vehicle control [1]: 0.96; fold changes relative to vehicle control [2]: 0.8; fold changes relative to vehicle control [3]: 0.98; fold changes relative to vehicle control [4]: 0.92; fold changes relative to vehicle control [5]: 0.84; fold changes relative to vehicle control [6]: 1.17; fold changes relative to vehicle control [7]: 0.97; fold changes relative to vehicle control [8]: 1.01
3 | CCCCCCOc1ccc(Cc2cnc(N)nc2N)cc1 [compound 1] | – | – | 1.21 | – | – | 1.26 | 0.77 | 0.89 | 1.16 | 0.97 | 1 | 1.07 | –
4 | CCCCCCOc1cccc(Cc2cnc(N)nc2N)c1 [compound 2] | – | – | 1.86 | – | – | 1.8 | 1.62 | 1.14 | 1.29 | 1.02 | 0.97 | 1.01 | –
5 | Nc1nc2cccc(-c3ccccc3)c2n1Cc1ccc(Cl)c(Cl)c1 [compound 3] | – | – | 0.86 | – | – | 1.1 | 0.75 | 1.02 | 0.98 | 0.88 | 1.19 | 1.06 | –
6 | NCCOCCOCC(=O)Nc1nc2ncc(CNc3ccc(C(=O)NC(CCC(=O)O)C(=O)O)cc3)nc2c(=O)[nH]1 (centres unmarked) [compound 6] | 1.15 | 0.89 | 1.24 | 0.81 | 0.91 | 1.09 | – | – | – | – | – | – | fold changes relative to vehicle control [4, 10]: 0.85; fold changes relative to vehicle control [6, 9]: 1.13
7 | NCCCNc1ccc(C(=O)NC(CCC(=O)O)C(=O)O)cc1 (centres unmarked) [compound 7] | 0.92 | 0.92 | 0.87 | 1.07 | 1.03 | 0.93 | – | – | – | – | – | – | fold changes relative to vehicle control [4, 10]: 0.87; fold changes relative to vehicle control ([6]; HeLa, protein SEC16A (HYPOTHETICAL PROTEIN LOC9919)): 1.3
